We go through eleven compounds from ChEMBL document CHEMBL1201862, “PubChem BioAssay data set” (2004).

Structures are written as SMILES.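 A five-concentration, 48-hour dose response in 96-well plates underlies each endpoint, interpolated linearly between surrounding concentrations. GI50 is the concentration that inhibits growth by half.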 The source made the active and inactive calls. Rule as the data show it: active = GI50 up to about 1.1 µM and inactive = higher. Bounds are passed on as bounds.

Some test systems named below: MCF7; 786-0; MDA-MB-435; EKVX; NCI-H23; UACC-257; SN12C; SK-MEL-5; TK-10; LOX IMVI; SF-295; Hs-578T; MDA-MB-231; SW-620; CCRF-CEM; RPMI-8226; OVCAR-8; SK-OV-3; KM12; CAKI-1.
Holding throughout (experiment): NCI tumour cell line growth inhibition, 48 h

As to `COc1cccc2c1[C@H]1CO[C@H]3C4C[C@H](C(=O)O)C([C@@H](C2)N13)N4C` (stereo partly drawn), the GI50 in the test on MCF7 was 0.491 µM (active); in the test with 786-0 it was 1.3 µM (inactive); in the test on MDA-MB-435, 0.0533 µM (active); with EKVX it was 4.74 µM (inactive); in the test with NCI-H23, 1.79 µM (inactive); with UACC-257, 1.91 µM (inactive). For the same compound, the GI50 in the test on SN12C is 1.99 µM (inactive); with SK-MEL-5, 1.88 µM (inactive); with TK-10 it was 3.28 µM (inactive); with LOX IMVI, 1.36 µM (inactive); in the test with SF-295, 7.1 µM (inactive); in the test on Hs-578T it was 0.0769 µM (active). Further, the GI50 is 0.205 µM (active) in the test with MDA-MB-231 and 1.98 µM (inactive) with SW-620.

Take `CN(C)c1ccc(C2CC(c3ccc4ccccc4c3O)=NN2)cc1` (stereo not drawn): the GI50 with MCF7 was 27.7 µM (inactive); with 786-0, 21.9 µM (inactive); in the test on CCRF-CEM, 17.9 µM (inactive); with RPMI-8226, 29.6 µM (inactive); with OVCAR-8 it was 32.4 µM (inactive); in the test with MDA-MB-435 it was 30.4 µM (inactive). In addition, the GI50 in the test on NCI-H23 was 34.5 µM (inactive); in the test on SK-OV-3, 48.5 µM (inactive); in the test with KM12, 39.5 µM (inactive); in the test on CAKI-1, 40.6 µM (inactive); with UACC-257, 38.8 µM (inactive); in the test with SN12C, 33.2 µM (inactive). Also, the GI50 with SK-MEL-5 is 36 µM (inactive); with TK-10 it was 56.4 µM (inactive); in the test on SF-295 it was 31.6 µM (inactive); with Hs-578T it was 37.4 µM (inactive); with MDA-MB-231, 50 µM (inactive); with SW-620 it was 32.9 µM (inactive).

Take `COc1ccccc1/C=C/c1c(N)ncnc1Nc1cccc(Cl)c1`: the GI50 with MCF7 was 25.8 µM (inactive); in the test on 786-0 it was 11.9 µM (inactive); with CCRF-CEM, 0.16 µM (active); in the test with RPMI-8226 it was 0.318 µM (active); with OVCAR-8, 25.4 µM (inactive); in the test with MDA-MB-435 it was 16.7 µM (inactive). The GI50 with EKVX was 16.7 µM (inactive); in the test with NCI-H23, 20.8 µM (inactive); in the test with KM12, 36.5 µM (inactive); in the test with CAKI-1, 20.9 µM (inactive); in the test with UACC-257, 19.3 µM (inactive); in the test with SN12C, 13.5 µM (inactive). The GI50 in the test on SK-MEL-5 was 22 µM (inactive); with TK-10, 14.5 µM (inactive); in the test with SF-295, 26.2 µM (inactive); with Hs-578T, 16.9 µM (inactive); in the test with MDA-MB-231 it was 17.7 µM (inactive); with SW-620, 34 µM (inactive).

For `COC(=O)[C@@H](O)[C@]1(C(=O)OC)C2O[C@@H](OC)[C@@H]1CCCCCC[C@H]2O`, the GI50 in the test on 786-0, in the test on CCRF-CEM, in the test with RPMI-8226, with OVCAR-8, with MDA-MB-435 and in the test on EKVX was > 100 µM (inactive) each time. Further, the GI50 in the test with NCI-H23, with SK-OV-3, in the test on KM12, in the test with CAKI-1, with UACC-257 and with SN12C was > 100 µM (inactive) throughout. Moreover, the GI50 in the test on SK-MEL-5, in the test on TK-10, in the test with LOX IMVI, in the test with SF-295, with Hs-578T and in the test on MDA-MB-231 was > 100 µM (inactive) each time. For the same compound, the GI50 with SW-620 is > 100 µM (inactive).

As for `O=C(O)c1cccc(OCCO)c1`, the GI50 with MCF7, in the test with 786-0, in the test with RPMI-8226, with OVCAR-8, with MDA-MB-435 and in the test with EKVX was > 100 µM (inactive) throughout. For the same compound, the GI50 in the test on NCI-H23, with SK-OV-3, in the test with KM12, with CAKI-1, in the test on UACC-257 and in the test with SN12C was > 100 µM (inactive) each time. Moreover, the GI50 with SK-MEL-5, in the test with TK-10, in the test on LOX IMVI, in the test with SF-295, with Hs-578T and with MDA-MB-231 was > 100 µM (inactive) throughout. In addition, the GI50 in the test with SW-620 was > 100 µM (inactive).

Take `CC(=O)O[C@@H]1CC2[C@@H](CCC3Cc4nc5c(nc4C[C@@]32C)CC2CC[C@@H]3C(CC[C@@]4(C)C3CC[C@@H]4C(C)CCCC(C)C)[C@@]2(C)C5)C2C[C@@H]3OC4(CCC(C)CO4)C(C)[C@@H]3[C@]21C` (stereo partly drawn): the GI50 is > 100 µM (inactive) with MCF7; 53.7 µM (inactive) in the test on 786-0; > 100 µM (inactive) in the test with CCRF-CEM; > 100 µM (inactive) with RPMI-8226; > 100 µM (inactive) in the test with OVCAR-8; > 100 µM (inactive) in the test with MDA-MB-435. Moreover, the GI50 in the test on EKVX is > 100 µM (inactive); in the test on NCI-H23 it was > 100 µM (inactive); in the test on SK-OV-3, 3.04 µM (inactive); in the test on KM12, > 100 µM (inactive); with UACC-257 it was > 100 µM (inactive); in the test on SN12C, > 100 µM (inactive). Also, the GI50 is > 100 µM (inactive) with SK-MEL-5; 33.1 µM (inactive) in the test on TK-10; 53.8 µM (inactive) in the test with SF-295; 21.1 µM (inactive) with Hs-578T; > 100 µM (inactive) in the test with MDA-MB-231; > 100 µM (inactive) in the test with SW-620.

For the compound `CN(C)CCOC1(Cc2ccc(Cl)cc2Cl)CCC(C(C)(C)C)CC1` (stereo not drawn), the GI50 is 2.19 µM (inactive) in the test on MCF7; 1.58 µM (inactive) with 786-0; 1.88 µM (inactive) in the test on CCRF-CEM; 1.6 µM (inactive) with RPMI-8226; 1.63 µM (inactive) in the test on OVCAR-8; 1.64 µM (inactive) in the test with MDA-MB-435. In addition, the GI50 in the test with NCI-H23 was 1.91 µM (inactive); with SK-OV-3, 10.5 µM (inactive); in the test with KM12, 1.72 µM (inactive); in the test on CAKI-1, 15.9 µM (inactive); in the test on UACC-257, 1.11 µM (active); in the test on SN12C, 1.73 µM (inactive). Besides, the GI50 in the test on SK-MEL-5 was 2.36 µM (inactive); in the test with TK-10, 1.26 µM (inactive); with LOX IMVI it was 1.78 µM (inactive); in the test with SF-295, 2.09 µM (inactive); in the test on Hs-578T, 2.4 µM (inactive); with MDA-MB-231, 1.77 µM (inactive). The GI50 in the test on SW-620 is 2.4 µM (inactive).

In the case of `CCCC(=O)NC(Nc1ccc(F)cc1)(C(F)(F)F)C(F)(F)F`, the GI50 in the test on MCF7 was > 37.7 µM (inactive); with 786-0 it was > 100 µM (inactive); in the test on RPMI-8226, 32.2 µM (inactive); in the test with OVCAR-8 it was 24.1 µM (inactive); in the test on MDA-MB-435 it was 1.25 µM (inactive); in the test with EKVX it was > 100 µM (inactive). Moreover, the GI50 in the test on NCI-H23 was > 43.4 µM (inactive); in the test on SK-OV-3 it was > 100 µM (inactive); in the test with KM12, 2.49 µM (inactive); in the test with CAKI-1, > 100 µM (inactive); in the test on UACC-257, 8.2 µM (inactive); in the test with SN12C, > 100 µM (inactive). Moreover, the GI50 in the test on SK-MEL-5 was 1.03 µM (active); with TK-10, > 43.7 µM (inactive); in the test with LOX IMVI, 0.404 µM (active); in the test with SF-295 it was 24.5 µM (inactive); with Hs-578T, > 55 µM (inactive); in the test with MDA-MB-231, > 100 µM (inactive). The GI50 with SW-620 is 2.84 µM (inactive).

Take `CO[C@H]1[C@@H](O)[C@@H](O)O[C@@H](O[C@H]2CC[C@@]3(C)[C@H](CC[C@@H]4[C@@H]3[C@H](O)C[C@]3(C)[C@@H](C5=CC(=O)OC5)CC[C@]43O)C2)[C@@H]1O`: the GI50 was 0.296 µM (active) in the test on 786-0; 0.23 µM (active) with CCRF-CEM; 0.198 µM (active) in the test with RPMI-8226; 0.33 µM (active) with OVCAR-8; 0.28 µM (active) in the test with MDA-MB-435; 0.151 µM (active) in the test on EKVX. The GI50 with NCI-H23 is 0.113 µM (active); in the test on SK-OV-3, 0.248 µM (active); with KM12 it was 0.698 µM (active); with CAKI-1, 0.111 µM (active); with UACC-257, 0.382 µM (active); in the test on SN12C it was 0.064 µM (active). Further, the GI50 with SK-MEL-5 was 0.136 µM (active); in the test on TK-10, 0.187 µM (active); in the test on LOX IMVI, 0.193 µM (active); with SF-295, 0.141 µM (active); in the test with Hs-578T, 0.407 µM (active); with MDA-MB-231, 0.649 µM (active). Besides, in the test on SW-620, the GI50 was 0.257 µM (active).

For the compound `CC(C)(C)C(=O)O[C@H]1C=C[C@@H](O)[C@@H]2[C@H]1[C@@H]1C=C[C@H]2C1`, the GI50 was 7.18 µM (inactive) in the test with MCF7; 48.5 µM (inactive) in the test on 786-0; 9.35 µM (inactive) with CCRF-CEM; 17.1 µM (inactive) in the test on RPMI-8226; 19 µM (inactive) in the test on OVCAR-8; 6.01 µM (inactive) with EKVX. Also, the GI50 is 12.1 µM (inactive) in the test on NCI-H23; 25.2 µM (inactive) in the test on SK-OV-3; 2.63 µM (inactive) with KM12; 71 µM (inactive) in the test on CAKI-1; 6.52 µM (inactive) in the test on UACC-257; 16.6 µM (inactive) in the test with SN12C. For the same compound, the GI50 in the test on TK-10 is 26.4 µM (inactive); in the test with LOX IMVI it was 21.4 µM (inactive); in the test with SF-295, 44.5 µM (inactive); with Hs-578T it was > 100 µM (inactive); in the test with MDA-MB-231 it was 19.2 µM (inactive); in the test with SW-620, 42.7 µM (inactive).

For the compound `COc1cc(S(=O)(=O)Nc2nc(-c3ccc(N4C(=O)C(CC(=O)O)SC4c4ccccc4O)cc3)cs2)ccc1Cl` (stereo not drawn), the GI50 is 42.5 µM (inactive) in the test on MCF7; > 100 µM (inactive) in the test on 786-0; 62.8 µM (inactive) with OVCAR-8; 87.5 µM (inactive) in the test with MDA-MB-435; 22.1 µM (inactive) in the test on NCI-H23; 62.4 µM (inactive) in the test on SK-OV-3. Moreover, the GI50 in the test on KM12 is 78.7 µM (inactive); in the test on CAKI-1, > 100 µM (inactive); in the test on UACC-257, 88.7 µM (inactive); in the test with SN12C, > 100 µM (inactive); in the test on SK-MEL-5, 29 µM (inactive); with TK-10, > 100 µM (inactive). The GI50 in the test with LOX IMVI was > 100 µM (inactive); with SF-295, 51.2 µM (inactive); with Hs-578T, > 100 µM (inactive); in the test on MDA-MB-231, > 100 µM (inactive); with SW-620 it was > 100 µM (inactive).
